Reference: patent US20180327367A1, “MACROCYCLIC BROAD SPECTRUM ANTIBIOTICS” (priority 2015, published 2018)
Values after ≈ are worked out from the molar mass of the structure shown. Like-named read-outs stand apart in the source and are kept apart here.

Legend:
Type in all cases: cell-based
[1] = tested on: Methicillin Resistant Staphylococcus aureus strain USA 300, NRS384; assay: Minimum inhibitory concentration, broth micro-dilution (CLSI), S. aureus; settings: Staphylococcus aureus, MRSA / NRS 384 / USA300, 22 h
Procedure, shortened: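 Ten-point 2-fold series began at 4 μg/mL in protocol 2 and 0.5 μg/mL in protocol 3, in cation-adjusted MHB plus 0.002% Tween-80. Bacteria added to OD600 0.0005 final and incubated at 35° C for 22 hours per CLSI microdilution.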

[2] = tested on: Escherichia coli MC4100 harboring the IMP4213 (E. coli IMP); assay: microbe, parasite or virus in culture; settings: Escherichia coli, 22 h
Procedure, shortened: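 Colonies grown 20 hours at 35° C were suspended in cation-adjusted Mueller Hinton Broth with 0.002% Tween-80. Cells were then added to 2-fold compound dilutions starting at 4 or 0.5 μg/mL, at OD600 0.0005.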

[3] = tested on: Escherichia coli ATCC 25922; assay: Minimum inhibitory concentration, broth micro-dilution (CLSI), E. coli; settings: Escherichia coli, ATCC25922, 22 h
[4] = MRSA USA 300 NRS384, 35° C., 22 hours, read-out: MIC (μg/mL) S. aureus
[5] = read-out: MIC (μg/mL) E. coli IMP, E. coli MC4100 IMP4213, increased outer-membrane permeability, 35° C., 22 hours
[6] = E. coli ATCC 25922, 35° C., 22 hours, read-out: MIC (μg/mL) E. coli
[7] = read-out: MIC (μg/mL) S. aureus, MRSA USA 300 NRS384, 35° C., 22 hours
[8] = read-out: MIC (μg/mL) E. coli, E. coli ATCC 25922, 35° C., 22 hours

SMILES	MIC [1, 4] [µg/mL]	MIC [2, 5] [µg/mL]	MIC [3, 6] [µg/mL]	MIC ([1]; read-out: MIC (μg/mL) S. aureus) [µg/mL]	MIC ([2]; read-out: MIC (μg/mL) E. coli IMP) [µg/mL]	MIC ([3]; read-out: MIC (μg/mL) E. coli) [µg/mL]	MIC [1, 7] [µg/mL]	MIC [3, 8] [µg/mL]
C[C@@H]1NC(=O)[C@@H](N(C)C(=O)[C@H](CCCCN)NC(=O)c2ccc(-c3ccc(Cl)cc3)cc2)c2ccc(O)c(c2)-c2cc(ccc2O)C[C@@H](C(=O)N[C@H](C#N)CO)NC1=O [Compound 418]	4 (≈ 4.85 µM)	> 4	> 64					
CCCCCCCCCCCC(=O)N[C@@H](CO)C(=O)N(C)[C@@H]1C(=O)N[C@@H](C)C(=O)N[C@H](C(=O)N[C@H](C#N)CC)Cc2ccc(OCCN)c(c2)-c2cc1ccc2OCCN [Compound 419]				4 (≈ 4.79 µM)	0.75 (≈ 0.898 µM)	32 (≈ 38.3 µM)		
Cc1cc(C(C)C)ccc1C(=O)N[C@@H](CCN)C(=O)N(C)[C@@H]1C(=O)N[C@@H](C)C(=O)N[C@H](C(=O)NCC#N)Cc2ccc(OCCN)c(c2)-c2cc1ccc2OCCN [Compound 433]		0.094 (≈ 0.118 µM)					0.5 (≈ 0.627 µM)	4 (≈ 5.01 µM)
Cc1cc(C2(C)CC2)ccc1C(=O)N[C@@H](CCN)C(=O)N(C)[C@@H]1C(=O)N[C@@H](C)C(=O)N[C@H](C(=O)NCC#N)Cc2ccc(OCCN)c(c2)-c2cc1ccc2OCCN [Compound 435]	0.5 (≈ 0.617 µM)	0.063 (≈ 0.0778 µM)	4 (≈ 4.94 µM)					
Cc1cc(C2CC(c3ccccc3)C2)ccc1C(=O)N[C@@H](CCN)C(=O)N(C)[C@@H]1C(=O)N[C@@H](C)C(=O)N[C@H](C(=O)NCC#N)Cc2ccc(OCCN)c(c2)-c2cc1ccc2OCCN (stereo partly drawn) [Compound 441]	0.063 (≈ 0.0711 µM)	0.016 (≈ 0.0181 µM)	1 (≈ 1.13 µM)					
Cc1c(C(=O)N[C@@H](CCN)C(=O)N(C)[C@@H]2C(=O)N[C@@H](C)C(=O)N[C@H](C(=O)NCC#N)Cc3ccc(OCCN)c(c3)-c3cc2ccc3OCCN)cnn1-c1ccc(CC(C)C)cc1 [Compound 444]	0.094 (≈ 0.107 µM)	0.031 (≈ 0.0353 µM)	3 (≈ 3.42 µM)					
Cc1cc(-n2cc(C#CC(C)C)cn2)ccc1C(=O)N[C@@H](CCN)C(=O)N(C)[C@@H]1C(=O)N[C@@H](C)C(=O)N[C@H](C(=O)NCC#N)Cc2ccc(OCCN)c(c2)-c2cc1ccc2OCCN [Compound 446]	0.063 (≈ 0.0709 µM)	0.012 (≈ 0.0135 µM)	0.5 (≈ 0.563 µM)					
CCCCCCCCc1ccc(C(=O)N[C@@H](CCN)C(=O)N(C)[C@@H]2C(=O)N[C@@H](C)C(=O)N[C@H](C(=O)NCC#N)Cc3ccc(OCCN)c(c3)-c3cc2ccc3OCCN)c(CCC(=O)O)c1 [Compound 447]	0.13 (≈ 0.14 µM)	0.012 (≈ 0.013 µM)	2 (≈ 2.16 µM)					
CCCCCCCCc1ccc(C(=O)N[C@@H](CCN)C(=O)N(C)[C@@H]2C(=O)N[C@@H](C)C(=O)N[C@H](C(=O)NCC#N)Cc3ccc(OCCN)c(c3)-c3cc2ccc3OCCN)c(CCC#N)c1 [Compound 449]		0.063 (≈ 0.0694 µM)					0.094 (≈ 0.104 µM)	1 (≈ 1.1 µM)
CCCCCCCCc1ccc(C(=O)N[C@@H](CCN)C(=O)N(C)[C@@H]2C(=O)N[C@@H](C)C(=O)N[C@H](C(=O)NCC#N)Cc3ccc(OCCN)c(c3)-c3cc2ccc3OCCN)c(CCC(N)=O)c1 [Compound 451]	0.023 (≈ 0.0249 µM)	0.016 (≈ 0.0173 µM)	2 (≈ 2.16 µM)					
CCCCCCCCCCN(CCN)CCC(=O)N(C)[C@@H]1C(=O)N[C@@H](C)C(=O)N[C@H](C(=O)NCC#N)Cc2ccc(OCCN)c(c2)-c2cc1ccc2OCCN [Compound 452]		2 (≈ 2.53 µM)					0.19 (≈ 0.24 µM)	64 (≈ 80.8 µM)
CCCCCCCCCCCC(=O)N[C@@H](CCC#N)C(=O)N(C)[C@@H]1C(=O)N[C@@H](C)C(=O)N[C@H](C(=O)NCC#N)Cc2ccc(OCCN)c(c2)-c2cc1ccc2OCCN [Compound 455]	0.5 (≈ 0.602 µM)	0.5 (≈ 0.602 µM)	32 (≈ 38.6 µM)					
CCCCCCCCCCCCCC(=O)N[C@@H](CCN)C(=O)N(C)[C@@H]1C(=O)N[C@@H](C)C(=O)N[C@H](C(=O)NCC#N)Cc2ccc(OCCO)c(c2)-c2cc1ccc2OCCO [Compound 458]	0.25 (≈ 0.294 µM)	0.0078 (≈ 0.00918 µM)	16 (≈ 18.8 µM)					
CCCCCCc1ccc(C(=O)N[C@@H](CCN)C(=O)N(C)[C@@H]2C(=O)N[C@@H](C)C(=O)N[C@H](C(=O)NCC#N)Cc3ccc(O)c(c3)-c3cc2ccc3O)c(C)c1 [Compound 466]	0.25 (≈ 0.332 µM)	0.063 (≈ 0.0836 µM)	64 (≈ 84.9 µM)					
CCCCCCc1ccc(C(=O)N[C@@H](CCNC=N)C(=O)N(C)[C@@H]2C(=O)N[C@@H](C)C(=O)N[C@H](C(=O)NCC#N)Cc3ccc(O)c(c3)-c3cc2ccc3O)c(C)c1 [Compound 467]		1 (≈ 1.28 µM)					1 (≈ 1.28 µM)	> 64
CCCCCCCCCCCCCC(=O)N(C)[C@@H]1C(=O)N[C@@H](C)C(=O)N[C@H](C(=O)N[C@@H](C)C#N)Cc2ccc(OCCN)c(c2)-c2cc1ccc2OCCN [Compound 474]	2 (≈ 2.62 µM)	0.19 (≈ 0.249 µM)	4 (≈ 5.25 µM)					
